Our source for the Km and stoichiometry N values is article PMC4274894, “The poplar Phi class glutathione transferase: expression, activity and structure of GSTF1” (Frontiers in Plant Science, 2014).

Experiment [1] addresses T1, PttGSTF1 (Populus trichocarpa, UniProt A9PHH6).
T1 construct: initiator Met cleaved, residues Ala2-Ala215; 24192 Da (WT); homodimer; differs from the P. trichocarpa GSTF1 by Val33 (Ile) and Arg86 (Lys)
Nature of the experiment: spectrophotometric GSH-conjugation assay ([…] nm), Michaelis-Menten fit. The class given is biochemical. To be noted: apparent Km; 0.7 mM GSH; 100 mM phosphate pH 6.5; 25°C; read-out: HNE.

The target in experiment [2] is T2, PttGSTF1 (Populus trichocarpa, UniProt A9PHH6, S13A, form not given).
T2 construct: initiator Met cleaved, residues Ala2-Ala215; 24192 Da (WT); homodimer; differs from the P. trichocarpa GSTF1 by Val33 (Ile) and Arg86 (Lys)
T2 sequence (A9PHH6 entry or part of it S13A, form open): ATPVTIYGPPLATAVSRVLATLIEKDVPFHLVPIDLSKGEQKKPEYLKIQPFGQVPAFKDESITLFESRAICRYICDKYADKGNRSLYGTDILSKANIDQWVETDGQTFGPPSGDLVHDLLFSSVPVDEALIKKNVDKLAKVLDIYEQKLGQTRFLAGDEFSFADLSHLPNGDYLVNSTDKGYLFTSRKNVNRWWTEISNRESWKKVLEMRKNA
The experiment is described as above. The class given is biochemical. To be noted: apparent Km; 1 mM GSH; 100 mM sodium phosphate pH 7.5; 25°C; read-out: PNP-butyrate.

The target of experiment [3] is T1, PttGSTF1. Described as above. To be noted: apparent Km; 1 mM GSH; 100 mM sodium phosphate pH 7.5; 25°C; read-out: PNP-butyrate. Format: biochemical.
For experiment [4], the target named is Populus tremula × P. tremuloides glutathione transferase Phi 1 (PttGSTF1) (Populus tremula × P. tremuloides). Nature of the experiment: SEC; calibrated Superdex 200 10/300, 30 mM Tris-HCl pH 8.0, 200 mM NaCl, 100 μg of purified protein injected, 0.5 ml/min; standards 6500-700,000 Da. Background: SEC sorts molecules by how far they enter the pores of the column.

In experiment [5] the target is PttGSTF1 S13A (Populus tremula × P. tremuloides). Described as above.
In experiment [6] the target is PttGSTF1 S13C (Populus tremula × P. tremuloides). The experiment is described as above.

Like-named read-outs stand apart in the source and are kept apart here.

T1 sequence (A9PHH6 entry or part of it): as the sequence (A9PHH6 entry or part of it S13A, form open) above, with A12S counted along it

Turning to `CCCCCC(O)/C=C/C=O` (stereo not drawn) [HNE, 4-hydroxy-2-nonenal], the Km in experiment [1] is 67.1 ± 6.6 µM.
On to `CCCC(=O)Oc1ccc([N+](=O)[O-])cc1` [PNP-butyrate], for which the results for the Km in experiment [2] and in experiment [3] were 1510 ± 120 µM and 360 ± 32.2 µM, respectively.
Take “Populus tremula × P. tremuloides glutathione transferase Phi 1 (PttGSTF1) (enzyme)”: the stoichiometry N in experiment [4] turned out to be 2.
PttGSTF1 S13A (enzyme): the stoichiometry N in experiment [5] is 2.
Regarding PttGSTF1 S13C (enzyme), the stoichiometry N in experiment [6] is 2.

In general, stoichiometry N refers to a count of units in the complex or per binding partner.
